According to patent US7605154B2, “Substituted Thiazolo [4,5-d]pyrimidines as protein kinase inhibitors” (Janssen Pharmaceutica N.V., priority 2005, dated 2009):
Values joined by “and” are separate entries in the source; they are usually repeats but may differ in a detail not shown here. Equal entries are not always repeated.

Experiments:
EGFR = target: T1, EGFR (Homo sapiens, UniProt P00533); test: EGFR Kinase Assay; format: biochemical; conditions: GST-EGFR, 5 μM ATP
T1 construct: started at nucleotide 2189 (corresponding to amino acid 667) and ended at the termination codon; made in house; host or cells: Sf9 insect cells (baculovirus)
Outline: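 Baculovirus/Sf9-expressed GST-EGFR with biotinylated polyGluTyr substrate, 5 μM ATP plus γ-33P-ATP, in 50 mM Tris pH 8.0, 10 mM MgCl2, 0.1 mM vanadate, 1 mM DTT; 1 h at 30 °C.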

SK-OV-3 [1] = test: Cell Proliferation Inhibition Assay (14C-thymidine incorporation), SK-OV-3; format: cell-based; conditions: Homo sapiens
Method: (§1) The ability of a test compound to inhibit unregulated cell proliferation may be determined by measuring incorporation of ^14C-labelled thymidine into newly synthesized DNA within cell lines derived from carcinomas originating from several tissues. Accordingly, the anti-proliferative effect of a compound on cells with a variety of phenotypes may be determined.
The carcinoma cells are trypsinized and counted. The cells (3000-8000 count) are added to each well of a 96-well CytoStar tissue culture treated scintillating microplate (Amersham #RPNQ0160) in complete medium (100 μL) and the plate is then incubated in complete medium for 24 hrs at 37° C. in an inert atmosphere containing 5% CO2. Test compound (1 μL) in 100% DMSO is added to the plate test-wells with DMSO only added to control-wells.
The plate contents are then discarded, the plate is washed twice with PBS (200 μL) and then PBS (200 μL) is added to each well. The plate is sealed and the degree of methyl ^14C-thyrnidine incorporation is quantified on a Packard Top Count.

SK-OV-3 [2] = test: SK-OV-3 Cell Migration Inhibition; format: cell-based; conditions: several values in a cell are repeat determinations
HeLa = test: Cell Proliferation Inhibition Assay (14C-thymidine incorporation), HeLa; format: cell-based; conditions: Homo sapiens
Description: as §1
(§2) Carcinoma cell lines include those such as HeLa cervical adenocarcinoma (American Type Culture Collection (ATCC), Virginia, Cat. #CCL-2), A375 malignant melanoma (ATCC CRL-1619), SK-OV-3 ovarian adenocarcinoma (ATCC HTB-77), HCT-116 colon carcinoma (CCL-247), PC-3 prostate adenocarcinoma (ATCC CRL-1435), and MDA-MB-231 (Xenogen Corp.)
(§3) The carcinoma cells are trypsinized and counted. […]
(§4) An aliquot of a solution of Methyl ^14C-thymidine (56 mC/mmol) (NEN #NEC568 or Amersham #CFA532) and complete medium (20 uL to provide 0.2 μCi/well) is then added to each well and the plate is incubated for a third 24 hr period at 37° C. in an atmosphere containing 5% CO2. […] The plate is sealed and the degree of methyl ^14C-thyrnidine incorporation is quantified on a Packard Top Count.

A375 = test: Cell Proliferation Inhibition Assay (14C-thymidine incorporation), A375; format: cell-based; conditions: Homo sapiens, A-375
Description: as §1, §2, §3, §4

HCT-116 = test: Cell Proliferation Inhibition Assay (14C-thymidine incorporation), HCT-116; format: cell-based; conditions: Homo sapiens
Description: as §1, §2, §3, §4

c-Src kinase = target: T2, c-Src kinase (Homo sapiens, UniProt P12931); test: c-Src Kinase Assay; format: biochemical; conditions: test concentration of 1 μM
T2 construct: purchased Upstate Biotechnology, Lake Placid, N.Y
Method: A mixure of a 10× kinase buffer (80 mM MOPS at pH 7.0, 2 mM EDTA and 100 mM Magnesium Chloride), ATP (5 μM final from a 10 mM stock), a Cdc2 peptide […] (100 μM final from a 2.5 mM stock), γ-^33P ATP (10 μCi/μL stock) and water (20 μL/well) was added to each well of a Streptavidin Flashplate.
Test compound in 100% DMSO (0.5 μL) was added to the appropriate wells. Diluted c-Src kinase (human) (Upstate Biotechnology, Lake Placid, N.Y.) (diluted in a buffer consisting of 20 mM MOPS at pH 7.0, 1 mM EDTA, β-mercaptoethanol (0.1%), Brij-35 (0.01%), glycerol (5%), and 1 mg/mL bovine serum albumin) (2.5 μL) was added to the wells to initiate the reactions. The reaction plates were incubated at 30° C. for 40 min. The reaction was terminated by the addition of a 3% phosphoric acid solution (5 μL). The reaction product (10 μL) was spotted onto a P30 filtermat and washed for 5 minutes in phosphoric acid (75 mM). The wash sequence was repeated two more times, followed with one final wash in methanol. The plates were then dried, sealed and read on the TopCount scintillation counter after adding 30 μL scintillation fluid.
Percent inhibition was derived according to the procedure described in Example 5. The results for those compounds tested are shown in Table 2 at a test concentration of 1 μM.

Lyn kinase = target: T3, Lyn kinase (Homo sapiens, UniProt P07948); test: Lyn Kinase Assay; format: biochemical; conditions: test concentration of 1 μM
T3 construct: purchased Upstate biotechnology, Lake Placid, N.Y
Method: A mixture of a 10× kinase buffer (500 mM MOPS at pH 7.5, 1 mM EGTA, 1 mM Sodium Vanadate, 1% β-mercaptoethanol and 100 mM Magnesium Acetate), ATP (5 μM final from a 10 mM stock), polyGluTyr (0.1 mg/mL final from a 1 mg/mL stock), γ-^33P ATP (10 μCi/μL stock) and water (20 μL/well) was added to each well of a Streptavidin Flashplate.
Test compound in 100% DMSO (0.5 μL) was added to the appropriate wells. Diluted Lyn kinase (human) (Upstate biotechnology, Lake Placid, N.Y) (diluted in a buffer consisting of 50 mM Tris at pH 7.5, 0.1 mM EGTA, Sodium Vanadate (0.1 mM), β-mercaptoethanol (0.1%) and 1 mg/mL bovine serum albumin) (2.5 μL) was added to the wells to initiate the reactions.
The reaction plates were incubated at 30° C. for 40 min. The reaction was terminated by the addition of a 3% phosphoric acid solution (5 μL). The reaction product (10 μL) was spotted onto a P30 filtermat and washed for 5 minutes in phosphoric acid (75 mM). The wash sequence was repeated two more times, followed with one final wash in methanol. The plates were then dried, sealed and read on the TopCount scintillation counter after adding 30 μL scintillation fluid.
Percent inhibition was derived according to the procedure described in Example 5. The results for those compounds tested are shown in Table 3 at a test concentration of 1 μM.

HER-2 = target: T4, HER-2 (Homo sapiens, UniProt P04626); test: HER-2 Kinase Assay; format: biochemical; conditions: GST-HER2, 1 μM ATP
T4 construct: the nucleotides encoding amino acids 679 to 1255 of HER-2; HIS6-Thrombin (His6 tag with thrombin site) (N); purchased Proqinase (Freiburg, Germany)
Method: The HER-2 kinase used was purified at Proqinase (Freiburg, Germany) from a construct that consisted of a fusion of GST (Glutathione-S-Transferase), HIS6-Thrombin and the nucleotides encoding amino acids 679 to 1255 of HER-2.
A mixture of a 10× kinase reaction buffer (600 mM Hepes at pH 7.5, 30 mM Magnesium Chloride, 0.03 mM Sodium Vanadate and […] PEG 20,000), DTT (1.2 mM final from a 10 mM stock), ATP (1 μM from a 10 mM stock), biotinylated polyGluTyr (1.5 ng/μL final from stock of 1 μg/μL prepared by Upstate Biotechnologies, Lake Placid, N.Y.), Manganese Chloride (3 mM final from a 1 M stock), γ-^33P-ATP (10 μCi/μL stock) and water (70 μL/well) was added to each well of a Streptavidin Flashplate (Cat. # SMP103, NEN, Boston, Mass.).
Test compound stock (1 μL) was added to the appropriate wells. Diluted GSTHER2 kinase (6.7 ng/μL diluted into 50 mM Tris-HCl at pH 8.0 and 0.1% bovine serum albumin) (30 μL) was added (total volume of 200 ng/well) to initiate the reactions.
The reaction plates were incubated at 30° C. for 1 hr. The reaction was terminated by aspirating the reaction mixture from the plate wells and washing the wells three times with a 1×PBS stop buffer (300 μL) and 100 mM EDTA. After the final wash, the same stop buffer (200 μL) was again added to the wells. The plates were then sealed and read on the TopCount scintillation counter. […]

[3] = Homo sapiens, SK-OV-3, SK-OV-3 migration

T1 sequence (P00533 667-1210 limits assumed): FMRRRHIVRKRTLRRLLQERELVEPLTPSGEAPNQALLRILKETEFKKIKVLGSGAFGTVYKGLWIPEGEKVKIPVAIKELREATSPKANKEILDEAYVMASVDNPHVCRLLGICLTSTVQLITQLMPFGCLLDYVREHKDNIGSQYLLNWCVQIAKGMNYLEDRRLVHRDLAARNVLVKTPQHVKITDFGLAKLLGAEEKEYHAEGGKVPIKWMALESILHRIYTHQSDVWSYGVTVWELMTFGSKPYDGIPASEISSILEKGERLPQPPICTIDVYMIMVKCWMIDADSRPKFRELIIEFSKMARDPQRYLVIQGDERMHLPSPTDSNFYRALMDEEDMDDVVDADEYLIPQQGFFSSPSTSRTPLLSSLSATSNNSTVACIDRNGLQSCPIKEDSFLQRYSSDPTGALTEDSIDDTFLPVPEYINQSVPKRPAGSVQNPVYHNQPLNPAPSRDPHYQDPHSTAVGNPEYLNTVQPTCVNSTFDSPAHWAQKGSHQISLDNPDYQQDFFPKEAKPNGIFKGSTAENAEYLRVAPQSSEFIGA
T2 sequence (P12931 whole entry): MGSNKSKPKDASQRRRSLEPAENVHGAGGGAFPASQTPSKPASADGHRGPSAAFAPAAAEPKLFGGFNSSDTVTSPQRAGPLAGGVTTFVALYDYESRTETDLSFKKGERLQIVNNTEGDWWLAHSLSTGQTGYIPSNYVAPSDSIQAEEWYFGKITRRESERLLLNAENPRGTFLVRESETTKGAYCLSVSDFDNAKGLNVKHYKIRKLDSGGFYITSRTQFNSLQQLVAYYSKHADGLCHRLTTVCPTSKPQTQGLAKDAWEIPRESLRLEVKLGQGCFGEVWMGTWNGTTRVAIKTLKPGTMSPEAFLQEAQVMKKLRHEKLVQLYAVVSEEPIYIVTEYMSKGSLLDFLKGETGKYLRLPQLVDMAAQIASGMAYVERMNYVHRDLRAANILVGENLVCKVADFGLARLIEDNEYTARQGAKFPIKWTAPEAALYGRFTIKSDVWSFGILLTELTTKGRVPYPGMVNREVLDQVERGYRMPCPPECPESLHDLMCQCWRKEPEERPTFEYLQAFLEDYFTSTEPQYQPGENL
T3 sequence (P07948 whole entry): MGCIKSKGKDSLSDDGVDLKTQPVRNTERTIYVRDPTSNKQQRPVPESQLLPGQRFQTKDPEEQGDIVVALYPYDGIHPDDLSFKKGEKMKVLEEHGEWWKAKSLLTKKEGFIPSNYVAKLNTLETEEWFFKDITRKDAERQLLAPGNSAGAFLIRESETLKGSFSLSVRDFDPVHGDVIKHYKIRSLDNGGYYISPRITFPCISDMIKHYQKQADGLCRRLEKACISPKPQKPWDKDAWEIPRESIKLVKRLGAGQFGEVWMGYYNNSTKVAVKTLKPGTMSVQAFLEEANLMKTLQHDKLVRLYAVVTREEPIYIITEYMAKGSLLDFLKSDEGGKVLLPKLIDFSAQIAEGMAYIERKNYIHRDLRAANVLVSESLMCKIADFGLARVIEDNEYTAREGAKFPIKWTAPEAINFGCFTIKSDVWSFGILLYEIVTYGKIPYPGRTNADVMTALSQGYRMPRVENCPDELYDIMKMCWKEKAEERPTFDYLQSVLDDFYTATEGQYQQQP
T4 sequence (P04626 679-1255): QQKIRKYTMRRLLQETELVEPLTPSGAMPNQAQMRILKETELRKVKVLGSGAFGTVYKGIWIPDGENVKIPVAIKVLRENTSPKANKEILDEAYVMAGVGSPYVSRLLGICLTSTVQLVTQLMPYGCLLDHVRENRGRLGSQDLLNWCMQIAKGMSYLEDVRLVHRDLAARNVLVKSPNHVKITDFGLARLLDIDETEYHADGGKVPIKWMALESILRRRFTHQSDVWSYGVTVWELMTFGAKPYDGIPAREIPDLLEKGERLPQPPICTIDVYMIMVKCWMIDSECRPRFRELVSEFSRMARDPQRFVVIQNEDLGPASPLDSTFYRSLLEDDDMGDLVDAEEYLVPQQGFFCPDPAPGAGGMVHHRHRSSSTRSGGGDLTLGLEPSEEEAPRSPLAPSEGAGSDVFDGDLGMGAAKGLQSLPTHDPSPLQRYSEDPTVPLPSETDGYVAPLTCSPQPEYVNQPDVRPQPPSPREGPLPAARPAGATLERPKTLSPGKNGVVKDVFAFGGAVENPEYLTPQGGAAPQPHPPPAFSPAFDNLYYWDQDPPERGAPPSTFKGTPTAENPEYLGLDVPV

| SMILES | IC50 (EGFR) [µM] | IC50 (SK-OV-3 [2]; [3]) [µM] | IC50 (SK-OV-3 [2]; SK-OV-3 migration) | further results |
| --- | --- | --- | --- | --- |
| Fc1ccc(Nc2ncnc3nc(Nc4ccc(CN5CCCCC5)cc4)sc23)cc1Cl [Cpd 2, N^7-(3-chloro-4-fluoro-phenyl)-N^2-(4-piperidin-1-ylmethyl-phenyl)-thiazolo[4,5-d]pyrimidine-2,7-diamine] | 0.0089 |  |  | IC50 (SK-OV-3 [1]): 0.49 µM |
| Fc1ccc(Nc2ncnc3nc(Nc4ccc(CCN5CCOCC5)cc4)sc23)cc1Cl [Cpd 4, N^7-(3-chloro-4-fluoro-phenyl)-N^2-[4-(2-morpholin-4-yl-ethyl)-phenyl]-thiazolo[4,5-d]pyrimidine-2,7-diamine] | 0.0217 | 0.735 | 0.52 µM |  |
| Fc1ccc(Nc2ncnc3nc(Nc4ccc(CN5CCCC5)cc4)sc23)cc1Cl [Cpd 17, N^7-(3-chloro-4-fluoro-phenyl)-N^2-(4-pyrrolidin-1-ylmethyl-phenyl)-thiazolo[4,5-d]pyrimidine-2,7-diamine] | 0.0042 |  |  | IC50 (SK-OV-3 [1]): 0.62 µM |
| Fc1ccc(Nc2ncnc3nc(Nc4ccc(CN5CCOCC5)cc4)sc23)cc1Cl [Cpd 18, N^7-(3-chloro-4-fluoro-phenyl)-N^2-(4-morpholin-4-ylmethyl-phenyl)-thiazolo[4,5-d]pyrimidine-2,7-diamine] | 0.0154 | 0.186 | 0.156 µM and 0.141 µM | IC50 (HeLa): > 100 µM; IC50 (A375): > 100 µM; IC50 (HCT-116): > 100 µM |
| CN(C)CCCNS(=O)(=O)c1ccc(Nc2nc3ncnc(Nc4ccc(F)c(Cl)c4)c3s2)cc1 [Cpd 31, 4-[7-(3-chloro-4-fluoro-phenylamino)-thiazolo[4,5-d]pyrimidin-2-ylamino]-N-(3-dimethylamino-propyl)-benzenesulfonamide] | 0.0103 | 0.138 | 0.18 µM and 0.191 µM |  |
| C#Cc1cccc(Nc2ncnc3nc(Nc4ccc(CN5CCOCC5)cc4)sc23)c1 [Cpd 35, N^7-(3-ethynyl-phenyl)-N^2-(4-morpholin-4-ylmethyl-phenyl)-thiazolo[4,5-d]pyrimidine-2,7-diamine] | 0.03 | 0.474 | 0.38 µM |  |
| NS(=O)(=O)c1ccc(Nc2nc3ncnc(Nc4ccc(F)c(Cl)c4)c3s2)cc1 [Cpd 73, 4-[7-(3-chloro-4-fluoro-phenylamino)-thiazolo[4,5-d]pyrimidin-2-ylamino]-benzenesulfonamnide] |  |  |  | inhibition at 1 µM (c-Src kinase): 65% |

Continued, in another order:

| IC50 (EGFR) [µM] | IC50 (SK-OV-3 [2]; [3]) [µM] | IC50 (SK-OV-3 [2]; SK-OV-3 migration) | SMILES | further results |
| --- | --- | --- | --- | --- |
| 0.0128 |  |  | CN(C)CCc1ccc(Nc2nc3ncnc(Nc4ccc(F)c(Cl)c4)c3s2)cc1 [Cpd 11, N^7-(3-chloro4-fluoro-phenyl)-N^2-[4-(2-dimethylamino-ethyl)-phenyl]-thiazolo[4,5-d]pyrimidine-2,7-diamine] | IC50 (SK-OV-3 [1]): 0.6 µM |
| 0.0208 | > 5 |  | COCCN(CCOC)S(=O)(=O)c1ccc(Nc2nc3ncnc(Nc4ccc(F)c(Cl)c4)c3s2)cc1 [Cpd 32, 4-[7-(3-chloro-4-fluoro-phenylamino)-thiazolo[4,5-d]pyrimidin-2-ylamino]-N,N-bis-(2-methoxy-ethyl)-benzenesulfonamide] |  |
| 0.0253 | 0.252 |  | C#Cc1cccc(Nc2ncnc3nc(Nc4ccc(S(=O)(=O)N(CCOC)CCOC)cc4)sc23)c1 [Cpd 33, 4-[7-(3-ethynyl-phenylamino)-thiazolo[4,5-d]pyrimidin-2-ylamino]-N,N-bis-(2-methoxy-ethyl)-benzenesulfonamide] |  |
| 0.0064 | 0.21 |  | COCCN(CCOC)Cc1ccc(Nc2nc3ncnc(Nc4ccc(F)c(Cl)c4)c3s2)cc1 [Cpd 34, N^2-(4-{[bis-(2-methoxy-ethyl)-amino]-methyl}-phenyl)-N^7-(3-chloro-4-fluoro-phenyl)-thiazolo[4,5-d]pyrimidine-2,7-diamine] |  |
| 0.00728 |  |  | C#Cc1cccc(Nc2ncnc3nc(Nc4ccc(CNCC(O)CO)cc4)sc23)c1 (stereo not drawn) [Cpd 66, 3-{4-[7-(3-ethynyl-phenylamino)-thiazolo[4,5-d]pyrimidin-2-ylamino]-benzylamino}-propane-1,2-diol] | inhibition at 1 µM (c-Src kinase): 15%; inhibition at 1 µM (Lyn kinase): 25% |
| 0.319 |  |  | CN1CCN(Cc2ccc(Nc3nc4ncnc(Nc5ccc(Oc6ccccc6)cc5)c4s3)cc2)CC1 [Cpd 94, N^2-[4-(4-methyl-piperazin-1-ylmethyl)-phenyl]-N^7-(4-phenoxy-phenyl)-thiazolo[4,5-d]pyrimidine-2,7-diamine] | IC50 (HER-2): 1.87 µM |
